Data on five molecules can be found in the NIST ThermoML archive (doi:10.1021/je100765j).

Numbers after ± are expanded uncertainties.

The conditions of the first series: 283.15 K; 101.33 kPa; Liquid; Sing-around technique in a fixed-path interferometer.
As usually defined, the speed of sound is how fast a sound wave travels through the sample. In the case of `CC(C)CCl` [1-chloro-2-methylpropane], the speed of sound was 1141.7 ± 1.2 m/s.

On to `CCCCCl` [1-chlorobutane], for which the speed of sound turned out to be 1180.1 ± 1.2 m/s.

Take `CCC(C)Cl` (configuration not stated) [2-chlorobutane]: the speed of sound is listed as 1127.7 ± 1.2 m/s.

As to `CC(C)(C)Cl` [2-chloro-2-methylpropane], the speed of sound is on record as 1046.9 ± 1.1 m/s.

Consider `CC(C)OC(C)C` [diisopropyl ether], for which the speed of sound is listed as 1065.5 ± 1.1 m/s.

The series is the same for the next values; noted with them: 283.15 K; 101.33 kPa; Liquid; Vibrating tube method.
A word on the mass density: it is mass per unit of volume. Consider `CC(C)CCl` [1-chloro-2-methylpropane], for which the mass density was found to be 888.845 ± 0.23 kg/m3.

With `CCCCCl` [1-chlorobutane], the mass density turned out to be 897.339 ± 0.23 kg/m3.

Take `CCC(C)Cl` (configuration not stated) [2-chlorobutane]: the mass density came out at 884.34 ± 0.23 kg/m3.

With `CC(C)(C)Cl` [2-chloro-2-methylpropane], the mass density is reported as 855.249 ± 0.23 kg/m3.

With `CC(C)OC(C)C` [diisopropyl ether], the mass density was 733.833 ± 0.24 kg/m3.

Staying with this series, now noted: 288.15 K; 101.33 kPa; Liquid; Sing-around technique in a fixed-path interferometer.
As to `CC(C)CCl` [1-chloro-2-methylpropane], the speed of sound was 1120.7 ± 1.2 m/s.

As for `CCCCCl` [1-chlorobutane], the speed of sound is listed as 1159.5 ± 1.2 m/s.

`CCC(C)Cl` (configuration not stated) [2-chlorobutane]: the speed of sound worked out at 1107.2 ± 1.2 m/s.

With `CC(C)(C)Cl` [2-chloro-2-methylpropane], the speed of sound turned out to be 1025.5 ± 1.1 m/s.

On to `CC(C)OC(C)C` [diisopropyl ether], for which the speed of sound amounted to 1043.1 ± 1.1 m/s.

The series is the same for the next values; noted with them: 288.15 K; 101.33 kPa; Liquid; Vibrating tube method.
As for `CC(C)CCl` [1-chloro-2-methylpropane], the mass density amounted to 883.211 ± 0.23 kg/m3.

Consider `CCCCCl` [1-chlorobutane], for which the mass density is reported as 891.855 ± 0.23 kg/m3.

Consider `CCC(C)Cl` (configuration not stated) [2-chlorobutane], for which the mass density turned out to be 878.756 ± 0.23 kg/m3.

Turning to `CC(C)(C)Cl` [2-chloro-2-methylpropane], the mass density came to 849.243 ± 0.23 kg/m3.

On to `CC(C)OC(C)C` [diisopropyl ether], for which the mass density is 728.692 ± 0.24 kg/m3.

Staying with this series, now noted: 293.15 K; 101.33 kPa; Liquid; Sing-around technique in a fixed-path interferometer.
With `CC(C)CCl` [1-chloro-2-methylpropane], the speed of sound came to 1099.6 ± 1.2 m/s.

In the case of `CCCCCl` [1-chlorobutane], the speed of sound is 1138.8 ± 1.2 m/s.

As for `CCC(C)Cl` (configuration not stated) [2-chlorobutane], the speed of sound is 1086.7 ± 1.1 m/s.

In the case of `CC(C)(C)Cl` [2-chloro-2-methylpropane], the speed of sound turned out to be 1004.1 ± 1.1 m/s.

Regarding `CC(C)OC(C)C` [diisopropyl ether], the speed of sound is listed as 1020.6 ± 1.1 m/s.

Staying with this series, now noted: 293.15 K; 101.33 kPa; Liquid; Vibrating tube method.
As for `CC(C)CCl` [1-chloro-2-methylpropane], the mass density came out at 877.539 ± 0.23 kg/m3.

As to `CCCCCl` [1-chlorobutane], the mass density is recorded as 886.335 ± 0.23 kg/m3.

Take `CCC(C)Cl` (configuration not stated) [2-chlorobutane]: the mass density is listed as 873.13 ± 0.23 kg/m3.

Regarding `CC(C)(C)Cl` [2-chloro-2-methylpropane], the mass density was found to be 843.191 ± 0.23 kg/m3.

For the molecule `CC(C)OC(C)C` [diisopropyl ether], the mass density is 723.509 ± 0.24 kg/m3.

Staying with this series, now noted: 298.15 K; 101.33 kPa; Liquid; Sing-around technique in a fixed-path interferometer.
For `CC(C)CCl` [1-chloro-2-methylpropane], the speed of sound is 1078.7 ± 1.1 m/s.

For `CCCCCl` [1-chlorobutane], the speed of sound is 1118.2 ± 1.2 m/s.

As to `CCC(C)Cl` (configuration not stated) [2-chlorobutane], the speed of sound was 1066.2 ± 1.1 m/s.

For the molecule `CC(C)(C)Cl` [2-chloro-2-methylpropane], the speed of sound was 983.25 ± 1.1 m/s.

Regarding `CC(C)OC(C)C` [diisopropyl ether], the speed of sound was found to be 998.27 ± 1.1 m/s.

Still in this series, the particulars now being: 298.15 K; 101.33 kPa; Liquid; Vibrating tube method.
Take `CC(C)CCl` [1-chloro-2-methylpropane]: the mass density was found to be 871.833 ± 0.23 kg/m3.

For the molecule `CCCCCl` [1-chlorobutane], the mass density came to 880.705 ± 0.23 kg/m3.

For the molecule `CCC(C)Cl` (configuration not stated) [2-chlorobutane], the mass density is 867.474 ± 0.23 kg/m3.

Consider `CC(C)(C)Cl` [2-chloro-2-methylpropane], for which the mass density is given as 837.096 ± 0.23 kg/m3.

For `CC(C)OC(C)C` [diisopropyl ether], the mass density is 718.289 ± 0.24 kg/m3.

Staying with this series, now noted: 303.15 K; 101.33 kPa; Liquid; Sing-around technique in a fixed-path interferometer.
In the case of `CC(C)CCl` [1-chloro-2-methylpropane], the speed of sound was 1057.8 ± 1.1 m/s.

On to `CCCCCl` [1-chlorobutane], for which the speed of sound is recorded as 1097.6 ± 1.2 m/s.

Consider `CCC(C)Cl` (configuration not stated) [2-chlorobutane], for which the speed of sound is recorded as 1045.9 ± 1.1 m/s.

Consider `CC(C)(C)Cl` [2-chloro-2-methylpropane], for which the speed of sound is on record as 961.51 ± 1.1 m/s.

`CC(C)OC(C)C` [diisopropyl ether]: the speed of sound worked out at 976.02 ± 1.1 m/s.

The series is the same for the next values; noted with them: 303.15 K; 101.33 kPa; Liquid; Vibrating tube method.
As for `CC(C)CCl` [1-chloro-2-methylpropane], the mass density came to 866.096 ± 0.23 kg/m3.

`CCCCCl` [1-chlorobutane]: the mass density came out at 875.204 ± 0.23 kg/m3.

With `CCC(C)Cl` (configuration not stated) [2-chlorobutane], the mass density is on record as 861.779 ± 0.23 kg/m3.

With `CC(C)(C)Cl` [2-chloro-2-methylpropane], the mass density stood at 830.958 ± 0.23 kg/m3.

Regarding `CC(C)OC(C)C` [diisopropyl ether], the mass density stood at 713.032 ± 0.25 kg/m3.

The series is the same for the next values; noted with them: 308.15 K; 101.33 kPa; Liquid; Sing-around technique in a fixed-path interferometer.
Turning to `CC(C)CCl` [1-chloro-2-methylpropane], the speed of sound is reported as 1037 ± 1.1 m/s.

As for `CCCCCl` [1-chlorobutane], the speed of sound worked out at 1077.2 ± 1.1 m/s.
